Measurements: ChEMBL document CHEMBL3885861, “Open TG-GATES”

Organism: Rattus norvegicus
Assay: Open TG-GATES - Regimen: Single
Type: toxicity, organism-based, Sprague-Dawley
Parameters: regimen Single, gender Male, age 6 weeks
Conditions: in vivo, po, 100 mg/kg, route gavage, dose level Middle; for APTT / Bas / Eos / Fbg / Hb / Ht / Lym / MCH / MCHC / MCV / Mono / Neu / PT / Plat / RBC / Ret / WBC: tissue Blood; for KIDNEY_L / KIDNEY_R / KIDNEY_TOTAL: tissue Kidney; for LIVER: tissue Liver; for A/G / ALP / ALT / AST / BUN / CRE / Ca / Cl / DBIL / GLC / IP / K / LDH / Na / PL / RALB / TBIL / TC / TG / TP / gamma-GTP: tissue Plasma

## CC[C@H]1[C@@H]2C[C@H]3[C@@H]4N(C)c5ccccc5[C@]45C[C@@H]([C@@H]2[C@H]5O)N3[C@@H]1O [AJMALINE]
3 h
  TERMINAL_BW: 195.2 g
  APTT: 16.3 s
  Bas: 0%
  Eos: 0.6%
  Fbg: 201.2 mg/dL
  Hb: 13.1 g/dL
  Ht: 40.1%
  Lym: 80.2%
  MCH: 21.8 pg
  MCHC: 32.7%
  MCV: 66.7 fL
  Mono: 6.8%
  Neu: 12.4%
  PT: 11.8 s
  Plat: 115.9 x10_4/uL
  RBC: 602.8 x10_4/ul
  Ret: 12.1%
  WBC: 109.1 x10_2/uL
  KIDNEY_L: 0.9 g
  KIDNEY_R: 0.9 g
  KIDNEY_TOTAL: 1.8 g
  LIVER: 9.6 g
  A/G: 2.4
  ALP: 824.8 IU/L
  ALT: 33.4 IU/L
  AST: 64.6 IU/L
  BUN: 11.6 mg/dL
  CRE: 0.4 mg/dL
  Ca: 11.1 mg/dL
  Cl: 103 meq/L
  DBIL: 0.052 mg/dL
  GLC: 198.4 mg/dL
  IP: 9.1 mg/dL
  K: 4.5 meq/L
  LDH: 128 IU/L
  Na: 138.2 meq/L
  PL: 140.4 mg/dL
  RALB: 3.6 g/dL
  TBIL: 0.4 mg/dL
  TC: 75 mg/dL
  TG: 65.6 mg/dL
  TP: 5.2 g/dL
  gamma-GTP: 1.6 IU/L
6 h
  TERMINAL_BW: 187.8 g
  APTT: 17 s
  Bas: 0%
  Eos: 0.6%
  Fbg: 193.4 mg/dL
  Hb: 12.9 g/dL
  Ht: 39%
  Lym: 84.2%
  MCH: 21.8 pg
  MCHC: 33.1%
  MCV: 66 fL
  Mono: 5.8%
  Neu: 9%
  PT: 12.1 s
  Plat: 109.9 x10_4/uL
  RBC: 591.4 x10_4/ul
  Ret: 11.2%
  WBC: 76.5 x10_2/uL
  KIDNEY_L: 0.9 g
  KIDNEY_R: 0.9 g
  KIDNEY_TOTAL: 1.8 g
  LIVER: 8.5 g
  A/G: 2.2
  ALP: 849 IU/L
  ALT: 31.6 IU/L
  AST: 67.8 IU/L
  BUN: 9 mg/dL
  CRE: 0.5 mg/dL
  Ca: 11 mg/dL
  Cl: 102.6 meq/L
  DBIL: 0.044 mg/dL
  GLC: 191 mg/dL
  IP: 9.9 mg/dL
  K: 4.6 meq/L
  LDH: 99.2 IU/L
  Na: 138.4 meq/L
  PL: 140.2 mg/dL
  RALB: 3.5 g/dL
  TBIL: 0.4 mg/dL
  TC: 83.6 mg/dL
  TG: 60.4 mg/dL
  TP: 5.2 g/dL
  gamma-GTP: 1 IU/L
9 h
  TERMINAL_BW: 191.7 g
  APTT: 16.7 s
  Bas: 0%
  Eos: 1.2%
  Fbg: 206 mg/dL
  Hb: 12.9 g/dL
  Ht: 39.2%
  Lym: 75%
  MCH: 21.6 pg
  MCHC: 32.8%
  MCV: 65.6 fL
  Mono: 7.8%
  Neu: 16.2%
  PT: 11.9 s
  Plat: 115.9 x10_4/uL
  RBC: 597 x10_4/ul
  Ret: 9.5%
  WBC: 88.2 x10_2/uL
  KIDNEY_L: 0.9 g
  KIDNEY_R: 1 g
  KIDNEY_TOTAL: 1.9 g
  LIVER: 8.1 g
  A/G: 2.6
  ALP: 786.2 IU/L
  ALT: 33 IU/L
  AST: 67.2 IU/L
  BUN: 11 mg/dL
  CRE: 0.5 mg/dL
  Ca: 10.3 mg/dL
  Cl: 104.6 meq/L
  DBIL: 0.066 mg/dL
  GLC: 190.6 mg/dL
  IP: 10.6 mg/dL
  K: 4.8 meq/L
  LDH: 107 IU/L
  Na: 138 meq/L
  PL: 138 mg/dL
  RALB: 3.7 g/dL
  TBIL: 0.3 mg/dL
  TC: 79.8 mg/dL
  TG: 46 mg/dL
  TP: 5.2 g/dL
  gamma-GTP: 0.2 IU/L
24 h
  TERMINAL_BW: 205.6 g
  APTT: 16.3 s
  Bas: 0%
  Eos: 1%
  Fbg: 205.6 mg/dL
  Hb: 12.7 g/dL
  Ht: 38.5%
  Lym: 81.2%
  MCH: 21.8 pg
  MCHC: 33.1%
  MCV: 65.9 fL
  Mono: 5.8%
  Neu: 12.4%
  PT: 11.6 s
  Plat: 106.5 x10_4/uL
  RBC: 585.2 x10_4/ul
  Ret: 11.1%
  WBC: 105.9 x10_2/uL
  KIDNEY_L: 1 g
  KIDNEY_R: 1 g
  KIDNEY_TOTAL: 2 g
  LIVER: 10.2 g
  A/G: 2.2
  ALP: 869.2 IU/L
  ALT: 39.4 IU/L
  AST: 67.2 IU/L
  BUN: 17.4 mg/dL
  CRE: 0.6 mg/dL
  Ca: 10.9 mg/dL
  Cl: 102.2 meq/L
  DBIL: 0.03 mg/dL
  GLC: 204.2 mg/dL
  IP: 8.4 mg/dL
  K: 4.5 meq/L
  LDH: 105.2 IU/L
  Na: 139.8 meq/L
  PL: 142.6 mg/dL
  RALB: 3.7 g/dL
  TBIL: 0.4 mg/dL
  TC: 79.4 mg/dL
  TG: 81.6 mg/dL
  TP: 5.4 g/dL
  gamma-GTP: 0.8 IU/L
